In PMC6312359, “Diisopropylphenyl-imidazole (DII): A new compound that exerts anthelmintic activity through novel molecular mechanisms” (PLoS Neglected Tropical Diseases, 2018):
Converted amounts (≈) assume the structure as drawn. “And” between values parts separate entries of the source, which are not always exact repeats. Equal values may be shown once. Read-outs that look alike come from different tables or passages of the source.

Experiments:
C. elegans [1] = experiment: Screening imidazole compounds: worm survival; assay type: in vivo, Caenorhabditis elegans; details: 150 μg/ml, 72 h, 20°C, young adult wild-type worms, liquid medium (S-Basal) with E. coli OP50
Protocol: 100–150 young adult wild-type worms were exposed to these compounds (150 μg/ml) in liquid medium (S-Basal) containing E. coli OP50. Micromolar concentrations for each compound are: 487 μM for 1, 428 μM for 2, 410 μM for 3, 375 μM for 4, 789 μM for 5, 735 μM for 6, 389 μM for 7, 319 μM for 8, 263 μM for 9, 806 μM for 10 and 657 μM for 11. Compounds were dissolved in water or DMSO according to their solubility. After 72 h, animal survival was analyzed. An animal was considered dead if it made no movement in response to gentle prodding with a worm pick. At least three independent experiments were analyzed.
We exposed 100–150 young adult worms to these compounds in liquid medium (S-Basal) containing the bacteria E. coli OP50 as a food source. After 72 h at 20°C, we analyzed worm survival (Fig 1B). […] The drug concentration chosen for this screening was 150 μg/ml, which is similar to those used in other screening studies. The corresponding molar concentration for each compound is detailed in Materials and Methods. Depending on their solubility properties, the compounds were dissolved either in water or DMSO (up to 0.75% final concentration).

[2] = test system: Escherichia coli ATCC 25922; experiment: Minimum inhibitory and bactericidal concentrations, microdilution; assay type: cell-based; details: 24 h at 37°C; for MBC / MIC: Escherichia coli, ATCC25922
Protocol: (§1) The strains used in this study were Escherichia coli ATCC 25922 and Staphylococcus aureus ATCC 25923, kindly provided by Dr. Ziegler (Bacillus Genetic Stock Center, The Ohio State University). Stocks were stored in Mueller Hinton Broth (MHB, Biokar Diagnostics, France) supplemented with glycerol 20% at -70°C. Before running each test, the strains were incubated for 48 h at 37°C in MHB. Finally, the bacterial strains were sub-cultured in MHB at 37°C for 24 h. The solutions of antimicrobial agents and imidazolium salts were prepared following the Clinical and Laboratory Standards Institute (CLSI) guidelines for determination of Minimum Inhibitory Concentrations by the microdilution method (CLSI 2009). […] Cultures were incubated as described above and adjusted to OD625nm ~ 0.08–0.13 by the direct colony suspension method in saline water and finally adjusted to 2–8 10^5 CFU/ml by diluting 1:150 in MHB before testing. A volume of 100 μl of each sample dilution in saline water was transferred to the microplate well. Finally, an equal volume of the inoculum was added. The MIC was the lowest concentration at which there was no visible growth when compared with controls after 24 h at 37°C. To assess the minimum bactericidal concentration (MBC), 20 μl aliquots were taken from the wells where no visible growth was observed, seeded on petri dishes and covered with MH agar (MHA) at 45°C. The compounds were considered bactericidal at the concentration at which no visible colony was observed on the plate after 24 h at 37°C. All conditions were run at least in duplicate. The results were obtained from at least 3 independent experiments.

[3] = test system: Staphylococcus aureus ATCC 25923; experiment: as above; assay type: cell-based; details: ATCC25923, 24 h at 37°C; for MBC: read-out: MBC S. aureus; for MIC: read-out: MIC S. aureus
Protocol: as §1

E. coli OP50 = experiment: OP50 growth in screening wells (qualitative); assay type: cell-based, Escherichia coli; details: 150 μg/ml, qualitative observation
From the text: During the screening assays, we qualitatively noticed that OP50 growth was inhibited in wells containing MI. This effect was not observed with DII. To quantify this observation, we determined minimum inhibitory concentration (MIC) and minimum bactericidal concentration (MBC) of both compounds in E. coli cultures (Fig 2A). […] Similar values were obtained when we performed these assays on S. aureus, a Gram-positive bacteria (Fig 2A). […] As we are here screening for specific anthelmintic activity, we restricted our further analysis to compounds that appear to exert nematicidal action without obvious lethal effects on other organisms. Therefore, we focused our studies only on DII, relegating the evaluation of MI as a potential anthelmintic drug.

C. elegans [4] = test system: C. elegans; design: method as in PMID 21195075, PMID 23869246; details: 24 h, even at millimolar concentrations, ref [39], [41]; cited from earlier work
C. elegans [5] = experiment: Acute paralysis assays; assay type: in vivo, Caenorhabditis elegans
Protocol: Acute paralysis assays were carried out in microtiter plates containing the drug dissolved in M9 buffer. […] Each drug concentration was tested in two wells (containing 30 animals each) within a single experiment. […] The experiment was independently repeated at least three times.

C. elegans [6] = experiment: Worm cut preparation paralysis; assay type: in vivo, Caenorhabditis elegans; details: 10 min; DII 600 μM, levamisole 10 μM
Protocol: Cutworm assays were performed as previously described with slight modifications. Briefly, synchronized young adult animals were mounted in a glass microscope slide containing Artificial Perienteric Fluid (APF) (67 mM NaCl, 67 mM NaCH3COOH, 3 mM KCl, 15.7 mM MgCl2, 3 mM CaCl2 and 5 mM Tris, pH 7.6). 10 animals were severed between the middle and tail, approximately two-thirds from the anterior end. Worms were subsequently transferred to a multi-well plate containing APF or drug-APF and paralysis was evaluated after 10 minutes. All experiments were performed at least three times.

C. elegans [7] = experiment: Body length measurements; assay type: in vivo, Caenorhabditis elegans; details: 600 μM, 2 h
Protocol: Vehicle (0.75% DMSO) was used as a control. After 2 h, images were acquired and body length was measured using FIJI-ImageJ software. At least three independent experiments were analyzed.

C. elegans [8] = experiment: Egg-laying assays; assay type: in vivo, Caenorhabditis elegans; details: gravid worms
Protocol: Age-synchronized gravid worms were transferred to solid NGM plates containing different drug concentrations (100–300 μM). Each concentration was evaluated in triplicate and DMSO was used as a control. After 1 h, the number of laid eggs per worm was counted. This experiment was independently repeated three times.

What does the source list for `Cc1cc(C)c(-n2ccnc2)c(C)c1` [Compound 10, mesityl-imidazole]?
worm death (C. elegans [1]): 100%; MIC E. coli ([2]; listed as MI (10)): 128 µg/mL (≈ 687 µM); MBC [2]: > 256 µg/mL; MIC [2]: 128 µg/mL and 680 µM; MBC [3]: > 256 µg/mL; MIC [3]: 128 µg/mL (≈ 687 µM); OP50 growth in screening wells (E. coli OP50): inhibited

Which C. elegans death (C. elegans [4]) does the source give for `CCCSc1ccc2nc(NC(=O)OC)[nH]c2c1` [albendazole] here?
Its C. elegans death is “less than 25%”.

Which MBC [2] does the source give for `O=C(O)c1cn(C2CC2)c2cc(N3CCNCC3)c(F)cc2c1=O` [cipro., ciprofloxacin, reference compound] here?
Its MBC is 1 µg/mL (≈ 3.02 µM).

And the MIC [2]?
The MIC was 0.25 µg/mL (≈ 0.754 µM).

What about the MBC [3] of the same molecule?
The MBC was 1 µg/mL (≈ 3.02 µM).

And the MIC [3]?
The MIC was 0.5 µg/mL (≈ 1.51 µM).

Which results are given for `c1ccc([C@H]2CN3CCSC3=N2)cc1` [levamisole]?
paralysis in CB407 unc-49(e407)III hypersensitive strain (C. elegans [5]; 100 μM, 10 min): hypersensitive; paralyzed animals (C. elegans [5]; 600 μM, 10 min): 100%; EC50 (C. elegans [5]; 10 min, L4 wild-type, Fig 4B, read-out: EC50 acute paralysis): 63.6 µM; EC50 (C. elegans [5]; Caenorhabditis elegans, 10 min, Fig 4E black circle (probably levamisole alone), 10 min, read-out: EC50 levamisole paralysis): 60 ± 1.12 µM; EC50 (C. elegans [5]; Caenorhabditis elegans, 10 min, Fig 4E dark pink triangle up (constant DII, probably 100 μM), 10 min, read-out: EC50 levamisole paralysis in presence of DII): 66 ± 1.15 µM; EC50 (C. elegans [5]; Caenorhabditis elegans, 10 min, Fig 4E light pink triangle down (constant DII, probably 200 μM), 10 min, read-out: EC50 levamisole paralysis in presence of DII): 62.2 ± 1.14 µM; EC50 (C. elegans [5]; Caenorhabditis elegans, 10 min, L4 wild-type, Fig 4B, read-out: EC50 acute paralysis): 63.6 ± 1.1 µM; EC50 (C. elegans [5]; Caenorhabditis elegans, 24 h, S5D Fig pink triangle (probably DII 100 μM for 24 h and during assay), read-out: EC50 levamisole paralysis after DII pre-exposure): 82.2 ± 1.39 µM; EC50 (C. elegans [5]; Caenorhabditis elegans, S5D Fig black circle (probably control without DII), read-out: EC50 levamisole paralysis): 82.4 ± 1.23 µM; paralysis in cut specimens (C. elegans [6]): paralysis is achieved at very low levamisole concentrations; body length (C. elegans [7]): worm shrinkage; laid eggs in 1 h, fold more than controls (C. elegans [8]; 100 μM): 3.8 fold; laid eggs in 1 h, fold more than controls (C. elegans [8]; 300 μM): 3.2 fold

Which C. elegans death (C. elegans [4]) does the source give for `CC(=O)Oc1ccccc1C(=O)Nc1ncc([N+](=O)[O-])s1` [nitazoxanide] here?
Its C. elegans death is “less than 25%”.

With `CN1CCCN=C1/C=C/c1cccs1` [pyrantel] as the molecule, how does the C. elegans death (C. elegans [4]) read?
The C. elegans death was “less than 25%”.

Which C. elegans death (C. elegans [4]) does the source give for ivermectin here?
Its C. elegans death is “less than 25%”.
